PubChem BioAssay (NCI)
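Tested at 5 concentrations; 48 h exposure; 96-well plates; endpoints linearly interpolated, else capped at highest concentration. TGI: total growth inhibition.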

What was measured:
Experiment in all cases: DTP human tumour cell line panel, 48 h
[1] = test system: A498 renal
[2] = test system: A549 NSCLC
[3] = test system: ACHN renal
[4] = test system: EKVX NSCLC
[5] = test system: HT29 colon
[6] = test system: NCI-H23 lung
[7] = test system: NCI-H460 lung
[8] = test system: OVCAR-8 ovarian
[9] = test system: SF-295 CNS
[10] = test system: SR leukemia
[11] = test system: DMS 273 small cell lung
[12] = test system: NCI-H522 lung
[13] = test system: U251 CNS
[14] = test system: DMS 114 small cell lung
[15] = test system: SN12C renal

Structure (SMILES) | TGI [1] | TGI [2] | TGI [3] | TGI [4] | TGI [5] | TGI [6] | TGI [7] | TGI [8] | TGI [9] | TGI [10] | TGI [11] | TGI [12] | TGI [13] | TGI [14] | TGI [15]
CCN1/C(=C/C(C)=C/c2sc3ccccc3[n+]2CC)Sc2ccccc21 | 1820 nM | 1420 nM | 3.13 µM | 1400 nM | 1720 nM | 824 nM | 517 nM | 1370 nM | 491 nM | 1750 nM | – | – | – | – | –
CNC(=O)CN1CC(=O)N(C)C(=O)C1 | – | – | – | – | – | > 100000 nM | – | – | – | > 100000 nM | > 100 µM | > 100 µM | > 100 µM | – | –
COc1ccc2c(c1)c1cc(OC)ccc1n2CCCCOc1ccc(-c2c3ccccc3c(-c3ccc(OCCCCn4c5ccc(OC)cc5c5cc(OC)ccc54)cc3)c3ccccc23)cc1 | – | > 100000 nM | > 100 µM | > 100000 nM | – | – | – | > 100000 nM | – | – | > 100 µM | > 100 µM | – | > 100 µM | > 100 µM
